Earlier results in US20260158012A1 (Beijing Creatron Institute Of Pharmaceutical Research Co. …, priority 2022, published 2026).
Read-outs that look alike come from different tables or passages of the source.

Columns and labels:
[1] = for Solubility (in words): aqueous media
[2] = not given; remark: listed apart in the source
[3] = 7 consecutive days
[4] = dosage increased from 400 mg each time to 600 mg each time
[5] = system: advanced hepatocellular carcinoma
[6] = trough concentration <1.40 μg/mL
[7] = trough concentration ≥3.45 μg/mL

[2H]C([2H])([2H])NC(=O)c1cc(Oc2ccc(NC(=O)Nc3ccc(Cl)c(C(F)(F)F)c3)cc2)ccn1 [Donafenib, 4-[4-[[4-chloro-3-(trifluoromethyl)phenyl]carbamoylamino]phenoxy]-N-(trideuteriomethyl)pyridine-2-carboxamide]
Solubility [1]: <10 µg/mL
Solubility (in words) [1]: Practically insoluble in aqueous

CNC(=O)c1cc(Oc2ccc(NC(=O)Nc3ccc(Cl)c(C(F)(F)F)c3)cc2)ccn1 [Sorafenib, 4-[4-[[4-chloro-3-(trifluoromethyl)phenyl]carbamoylamino]phenoxy]-N-methylpyridine-2-carboxamide]
steady state concentration in the blood (plasma) (after 2 weeks of treatment, renal cell carcinoma patients): 881-12,526 ng/mL
blood drug concentration of patients who experienced serious adverse reactions (human, in vivo): exceeded 10,000 ng/ml
incidence of fatigue (renal cell carcinoma patients): 55.32%
incidence of hand-foot syndrome (renal cell carcinoma patients): 68.99%
concentration of sorafenib molecules in the solution ([2]; pH 1.0): 3400 ng/mL
concentration of sorafenib molecules in the solution ([2]; pH 4.5): 130 ng/mL
coefficient of variation of AUC0-12 h at steady state ([3]; 200 mg (Bid) oral): 16.9%
coefficient of variation of Cmax at steady state ([3]; 200 mg (Bid) oral): 8.6%
coefficient of variation of AUC0-12 h at steady state ([3]; 400 mg (Bid) oral): 90.5%
coefficient of variation of Cmax at steady state ([3]; 400 mg (Bid) oral): 106.7%
increase in drug exposure [4]: 13%
overall survival (OS) ([5]; 1.40 μg/mL≤Ctrough<3.45 μg/mL): 17.8 months
time to treatment failure (TTF) ([5]; 1.40 μg/mL≤Ctrough<3.45 μg/mL): 13.1 months
overall survival (OS) [5, 6]: 5.3 months
progression-free survival (PFS) [5, 6]: 4.7 months
time to treatment failure (TTF) [5, 6]: 4.7 months
incidence of serious adverse reactions above grade 3 ([5]; trough concentration below 3.45 μg/ml): 26.7%
incidence of serious adverse reactions above grade 3 ([5]; trough concentration exceeded 3.45 μg/ml): 72.7%
overall survival (OS) [5, 7]: 9.5 months
progression-free survival (PFS) [5, 7]: 8.9 months
time to treatment failure (TTF) [5, 7]: 2.4 months
Solubility [1]: <10 µg/mL
oil-water partition coefficient Log P [1]: about 5.6
Solubility (in words) [1]: Practically insoluble in aqueous
